Assay results: ChEMBL document CHEMBL5226311, “Recent Progress on Tubulin Inhibitors with Dual Targeting Capabilities for Cancer Therapy” (J Med Chem, 2021)

Experiments:
[1] = test system: A549; test: Antiproliferative activity against human A549 cells assessed as cell growth inhibition; format: functional, cell-based
[2] = test system: MCF7; test: Antiproliferative activity against human MCF7 cells assessed as cell growth inhibition; format: functional, cell-based
[3] = test system: KB; test: Antiproliferative activity against etoposide-resistant human KB cells assessed as cell growth inhibition; format: functional, cell-based
[4] = test system: KB; test: Antiproliferative activity against human KB cells assessed as cell growth inhibition; format: functional, cell-based
[5] = test system: KB; test: Antiproliferative activity against vincristine-resistant human KB cells assessed as cell growth inhibition; format: functional, cell-based
[6] = test system: MDA-MB-435; test: Antiproliferative activity against human MDA-MB-435 cells assessed as cell growth inhibition; format: functional
[7] = test system: DLD-1; test: Antiproliferative activity against MTAs-resistant human DLD-1 cells overexpressing P-gp assessed as cell growth inhibition; format: functional, cell-based
[8] = test system: A498; test: Antiproliferative activity against human A498 cells assessed as cell growth inhibition; format: functional
[9] = test system: M14; test: Antiproliferative activity against human M14 cells assessed as cell growth inhibition; format: functional
[10] = test system: BT-549; test: Antiproliferative activity against human BT-549 cells assessed as cell growth inhibition; format: functional
[11] = test system: SF-295; test: Antiproliferative activity against human SF-295 cells assessed as cell growth inhibition; format: functional
[12] = test system: NCI/ADR-RES; test: Antiproliferative activity against human NCI/ADR-RES cells assessed as cell growth inhibition; format: functional
[13] = test system: OVCAR-8; test: Antiproliferative activity against human OVCAR-8 cells assessed as cell growth inhibition; format: functional
[14] = test system: NCI-H522; test: Antiproliferative activity against human NCI-H522 cells assessed as cell growth inhibition; format: functional
[15] = test system: SNB-75; test: Antiproliferative activity against human SNB-75 cells assessed as cell growth inhibition; format: functional
[16] = test system: K562; test: Antiproliferative activity against human K562 cells assessed as cell growth inhibition; format: functional
[17] = test system: SN12C; test: Antiproliferative activity against human SN12C cells assessed as cell growth inhibition; format: functional
[18] = test system: KM12; test: Antiproliferative activity against human KM12 cells assessed as cell growth inhibition; format: functional
[19] = test system: PC-3; test: Antiproliferative activity against human PC-3 cells assessed as cell growth inhibition; format: functional
[20] = test system: CCRF-CEM; test: Antiproliferative activity against human CCRF-CEM cells assessed as cell growth inhibition; format: functional
[21] = test system: SW-620; test: Antiproliferative activity against human SW-620 cells assessed as cell growth inhibition; format: functional
[22] = test system: LOX IMVI; test: Antiproliferative activity against human LOX IMVI cells assessed as cell growth inhibition; format: functional
[23] = test system: HL-60(TB); test: Antiproliferative activity against human HL-60(TB) cells assessed as cell growth inhibition; format: functional
[24] = test system: OVCAR-3; test: Antiproliferative activity against human OVCAR-3 cells assessed as cell growth inhibition; format: functional
[25] = test system: NCI-H322M; test: Antiproliferative activity against human NCI-H322M cells assessed as cell growth inhibition; format: functional
[26] = test system: HCT-15; test: Antiproliferative activity against human HCT-15 cells assessed as cell growth inhibition; format: functional
[27] = biological target: Tubulin; test: Inhibition of tubulin polymerization (unknown origin); format: protein-complex assay, Homo sapiens
[28] = test system: SF-539; test: Antiproliferative activity against human SF-539 cells assessed as cell growth inhibition; format: functional
[29] = test system: DU-145; test: Antiproliferative activity against human DU-145 cells assessed as cell growth inhibition; format: functional
[30] = test system: Hs-578T; test: Antiproliferative activity against human Hs-578T cells assessed as cell growth inhibition; format: functional
[31] = test system: RXF 393; test: Antiproliferative activity against human RXF 393 cells assessed as cell growth inhibition; format: functional
[32] = biological target: Tubulin; test: Inhibition of tubulin depolymerization (unknown origin); format: protein-complex assay, Homo sapiens
[33] = test system: HCT-116; test: Antiproliferative activity against human HCT-116 cells assessed as cell growth inhibition; format: functional, cell-based
[34] = test system: HONE1 cell line; test: Antiproliferative activity against human HONE1 cell line assessed as cell growth inhibition; format: functional, cell-based
[35] = test system: EA.hy 926; test: Antiproliferative activity against human EA.hy 926 cells assessed as cell growth inhibition; format: functional, cell-based
[36] = biological target: Epidermal growth factor receptor (Homo sapiens, UniProt P00533); test: Inhibition of EGFR (unknown origin)
[37] = biological target: Vascular endothelial growth factor receptor 2 (Homo sapiens, UniProt P35968); test: Inhibition of VEGFR2 (unknown origin)
[38] = test system: NCI-H460; test: Antitumor activity against human NCI-H460 cells expressing TaxR xenografted in mouse assessed as inhibition of tumor growth at 30 mg/kg relative to control; format: functional; conditions: read-out: TGI
[39] = test system: HepG2; test: Antiproliferative activity against human HepG2 cells assessed as cell growth inhibition measured after 72 hrs by MTT assay; format: functional, cell-based; conditions: HepG2, 72 h
[40] = test system: NCI-H460; test: Antiproliferative activity against human NCI-H460 cells assessed as cell growth inhibition measured after 72 hrs by MTT assay; format: functional, cell-based; conditions: NCI-H460, 72 h
[41] = test system: MV4-11; test: Antiproliferative activity against human MV4-11 cells assessed as cell growth inhibition measured after 72 hrs by MTT assay; format: functional, cell-based; conditions: MV4-11, 72 h
[42] = test system: A2780S; test: Antiproliferative activity against human A2780S cells assessed as cell growth inhibition measured after 72 hrs by MTT assay; format: functional, cell-based
[43] = Antiproliferative activity against human HBL1 cells assessed as cell growth inhibition measured after 72 hrs by MTT assay; format: functional, cell-based; conditions: HBL1, 72 h
[44] = test system: MM1.S; test: Antiproliferative activity against human MM1.S cells assessed as cell growth inhibition measured after 72 hrs by MTT assay; format: functional, cell-based
[45] = test system: A549; test: Antiproliferative activity against human A549 cells assessed as cell growth inhibition measured after 72 hrs by MTT assay; format: functional, cell-based; conditions: A549, 72 h
[46] = test system: RPMI-8226; test: Antiproliferative activity against human RPMI-8226 cells assessed as cell growth inhibition measured after 72 hrs by MTT assay; format: functional, cell-based; conditions: RPMI-8226, 72 h
[47] = test system: HT-29; test: Antiproliferative activity against human HT-29 cells assessed as cell growth inhibition measured after 72 hrs by MTT assay; format: functional, cell-based; conditions: HT-29, 72 h
[48] = test system: Ramos; test: Antiproliferative activity against human Ramos cells assessed as cell growth inhibition measured after 72 hrs by MTT assay; format: functional, cell-based
[49] = test system: U-266; test: Antiproliferative activity against human U-266 cells assessed as cell growth inhibition measured after 72 hrs by MTT assay; format: functional, cell-based; conditions: U-266, 72 h
[50] = test system: SK-OV-3; test: Antiproliferative activity against human SK-OV-3 cells assessed as cell growth inhibition measured after 72 hrs by MTT assay; format: functional, cell-based; conditions: SK-OV-3, 72 h
[51] = test system: K562; test: Antiproliferative activity against human K562 cells assessed as cell growth inhibition measured after 72 hrs by MTT assay; format: functional, cell-based; conditions: K562, 72 h
[52] = test system: HCT-116; test: Antiproliferative activity against human HCT-116 cells assessed as cell growth inhibition measured after 72 hrs by MTT assay; format: functional, cell-based; conditions: HCT-116, 72 h
[53] = test system: MDA-MB-231; test: Antiproliferative activity against human MDA-MB-231 cells assessed as cell growth inhibition measured after 72 hrs by MTT assay; format: functional, cell-based; conditions: MDA-MB-231, 72 h
[54] = test system: JeKo-1; test: Antiproliferative activity against human JeKo-1 cells assessed as cell growth inhibition measured after 72 hrs by MTT assay; format: functional, cell-based; conditions: JeKo-1, 72 h
[55] = test system: A-375; test: Antiproliferative activity against human A-375 cells assessed as cell growth inhibition measured after 72 hrs by MTT assay; format: functional, cell-based; conditions: A-375, 72 h
[56] = Antiproliferative activity against human ARD cells assessed as cell growth inhibition measured after 72 hrs by MTT assay; format: functional, cell-based
[57] = Antiproliferative activity against human LAMA84-s cells assessed as cell growth inhibition measured after 72 hrs by MTT assay; format: functional, cell-based
[58] = test system: MCF7; test: Antiproliferative activity against human MCF7 cells assessed as cell growth inhibition measured after 72 hrs by MTT assay; format: functional, cell-based; conditions: MCF7, 72 h
[59] = test system: MES-SA/Dx5; test: Antiproliferative activity against human MES-SA/Dx5 cells assessed as cell growth inhibition; format: functional, cell-based
[60] = Antiproliferative activity against human KB/VCR cells assessed as cell growth inhibition; format: functional, cell-based
[61] = test system: HL60/MX2; test: Antiproliferative activity against human HL60/MX2 cells assessed as cell growth inhibition; format: functional, cell-based
[62] = test system: A 172; test: Antiproliferative activity against human A-172 cells assessed as cell growth inhibition; format: functional, cell-based
[63] = Antiproliferative activity against human U87 cells assessed as cell growth inhibition; format: functional, cell-based, U-87MG ATCC; conditions: U-87 MG
[64] = Antiproliferative activity against human U87MG Human EGFR vIII cells assessed as cell growth inhibition; format: functional, cell-based
[65] = test system: U-251; test: Antiproliferative activity against human U-251 cells assessed as cell growth inhibition; format: functional, cell-based
[66] = test system: NCI-H460; test: Antiproliferative activity against human NCI-H460 cells assessed as cell growth inhibition; format: functional, cell-based
[67] = test system: NCI-H460; test: Antitumor activity against human NCI-H460 cells xenografted in mouse assessed as inhibition of tumor growth at 30 mg/kg relative to control; format: functional; conditions: read-out: TGI
[68] = test system: NCI-H460; test: Antiproliferative activity against human NCI-H460 cells expressing TaxR assessed as cell growth inhibition; format: functional, cell-based

Chain of Vascular endothelial growth factor receptor 2 (P35968 whole entry): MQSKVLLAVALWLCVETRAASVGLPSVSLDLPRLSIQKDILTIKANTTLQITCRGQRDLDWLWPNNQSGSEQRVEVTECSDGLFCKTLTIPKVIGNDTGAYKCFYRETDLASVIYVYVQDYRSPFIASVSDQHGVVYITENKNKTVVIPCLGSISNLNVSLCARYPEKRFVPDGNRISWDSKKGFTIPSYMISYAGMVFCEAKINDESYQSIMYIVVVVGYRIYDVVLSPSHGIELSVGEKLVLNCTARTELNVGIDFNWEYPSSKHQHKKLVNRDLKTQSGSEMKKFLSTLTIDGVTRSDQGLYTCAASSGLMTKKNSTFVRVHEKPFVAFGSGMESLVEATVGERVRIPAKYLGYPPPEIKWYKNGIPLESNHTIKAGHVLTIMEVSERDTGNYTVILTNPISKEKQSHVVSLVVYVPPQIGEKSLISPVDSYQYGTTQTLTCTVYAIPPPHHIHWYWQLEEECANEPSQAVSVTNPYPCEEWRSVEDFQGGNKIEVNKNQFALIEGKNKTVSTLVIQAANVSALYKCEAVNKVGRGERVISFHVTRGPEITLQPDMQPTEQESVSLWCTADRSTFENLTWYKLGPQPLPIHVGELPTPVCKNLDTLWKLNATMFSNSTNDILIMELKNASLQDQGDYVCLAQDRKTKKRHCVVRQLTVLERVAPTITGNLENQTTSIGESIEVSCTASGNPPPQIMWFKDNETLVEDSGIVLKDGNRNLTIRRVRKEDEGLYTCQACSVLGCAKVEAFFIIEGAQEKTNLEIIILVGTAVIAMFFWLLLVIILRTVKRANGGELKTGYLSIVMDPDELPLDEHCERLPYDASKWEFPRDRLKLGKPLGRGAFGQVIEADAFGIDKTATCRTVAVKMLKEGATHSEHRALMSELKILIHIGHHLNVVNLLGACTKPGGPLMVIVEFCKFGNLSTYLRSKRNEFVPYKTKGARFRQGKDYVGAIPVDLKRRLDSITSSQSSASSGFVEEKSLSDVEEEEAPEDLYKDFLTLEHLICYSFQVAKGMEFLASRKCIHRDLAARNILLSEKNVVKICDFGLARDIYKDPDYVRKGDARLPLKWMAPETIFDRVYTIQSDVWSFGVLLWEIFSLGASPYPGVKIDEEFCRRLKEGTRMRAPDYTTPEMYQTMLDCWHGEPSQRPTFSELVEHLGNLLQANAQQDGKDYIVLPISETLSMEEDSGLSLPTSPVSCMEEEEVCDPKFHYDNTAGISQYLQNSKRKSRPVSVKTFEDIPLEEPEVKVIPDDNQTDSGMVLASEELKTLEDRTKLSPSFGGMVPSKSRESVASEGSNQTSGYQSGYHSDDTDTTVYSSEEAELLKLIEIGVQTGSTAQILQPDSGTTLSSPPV
Chain of Epidermal growth factor receptor (P00533 whole entry): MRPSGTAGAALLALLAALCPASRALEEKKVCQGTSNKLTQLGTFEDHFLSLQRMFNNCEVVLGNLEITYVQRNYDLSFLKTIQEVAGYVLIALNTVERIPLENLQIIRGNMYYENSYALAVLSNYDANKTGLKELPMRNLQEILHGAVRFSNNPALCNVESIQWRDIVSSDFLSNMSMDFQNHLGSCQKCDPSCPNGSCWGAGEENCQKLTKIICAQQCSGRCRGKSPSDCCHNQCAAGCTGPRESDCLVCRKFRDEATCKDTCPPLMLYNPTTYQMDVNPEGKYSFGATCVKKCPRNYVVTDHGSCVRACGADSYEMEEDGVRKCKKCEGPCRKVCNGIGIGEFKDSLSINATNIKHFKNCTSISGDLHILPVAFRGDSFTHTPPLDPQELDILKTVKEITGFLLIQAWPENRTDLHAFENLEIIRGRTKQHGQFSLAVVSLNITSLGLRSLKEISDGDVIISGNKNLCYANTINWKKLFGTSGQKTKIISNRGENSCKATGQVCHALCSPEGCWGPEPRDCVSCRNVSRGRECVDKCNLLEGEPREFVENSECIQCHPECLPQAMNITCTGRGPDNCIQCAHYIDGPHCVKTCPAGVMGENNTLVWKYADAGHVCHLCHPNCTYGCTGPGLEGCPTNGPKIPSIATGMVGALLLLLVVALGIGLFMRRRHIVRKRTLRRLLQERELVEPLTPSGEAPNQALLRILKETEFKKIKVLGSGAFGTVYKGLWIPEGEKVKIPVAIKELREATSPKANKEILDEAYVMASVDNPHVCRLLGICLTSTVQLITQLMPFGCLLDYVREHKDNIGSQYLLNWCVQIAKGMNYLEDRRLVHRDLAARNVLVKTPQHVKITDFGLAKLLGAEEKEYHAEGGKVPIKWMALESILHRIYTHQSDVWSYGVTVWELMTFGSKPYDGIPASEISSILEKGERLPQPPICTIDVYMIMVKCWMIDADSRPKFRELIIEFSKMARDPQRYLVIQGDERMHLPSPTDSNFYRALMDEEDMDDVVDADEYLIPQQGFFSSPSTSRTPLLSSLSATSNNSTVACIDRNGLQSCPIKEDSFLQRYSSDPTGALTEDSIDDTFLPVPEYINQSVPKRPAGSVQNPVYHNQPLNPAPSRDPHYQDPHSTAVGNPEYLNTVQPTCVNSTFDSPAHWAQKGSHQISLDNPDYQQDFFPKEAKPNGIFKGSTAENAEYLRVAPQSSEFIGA

COC(=O)NCCc1c(C(=O)c2ccccc2[N+](=O)[O-])[nH]c2ccccc12
IC50 [1]: 740 nM
IC50 [2]: 1590 nM

COc1ccc(S(=O)(=O)Nc2ccccc2NCc2ccc(C(=O)Nc3ccccc3N)cc2)cc1
IC50 [3]: 22 nM
IC50 [4]: 12 nM
IC50 [5]: 12 nM

COc1ccn2c(C(C)=O)cc(C(=O)c3ccc4c(c3)Sc3ccccc3N4)c2c1
GI50 [6]: 19 nM

CCCCC(C#CC(=O)OC)O/C=C/C(=O)OC (stereo unspecified)
IC50 [7]: 450 nM

COc1ccc(C(=O)c2cc(C)c(OC)c(C)c2)cc1OC(=O)CCl
GI50 [8]: < 10 nM
GI50 [9]: < 10 nM
GI50 [10]: < 10 nM
GI50 [11]: < 10 nM
GI50 [12]: < 10 nM
GI50 [13]: < 10 nM
GI50 [14]: < 10 nM
GI50 [15]: < 10 nM
GI50 [16]: < 10 nM
GI50 [17]: < 10 nM
GI50 [18]: < 10 nM
GI50 [1]: < 10 nM
GI50 [19]: < 10 nM
GI50 [20]: < 10 nM
GI50 [21]: < 10 nM
GI50 [22]: < 10 nM
GI50 [6]: < 10 nM
GI50 [23]: < 10 nM
GI50 [24]: < 10 nM
GI50 [25]: < 10 nM
GI50 [26]: < 10 nM
GI50 [2]: < 10 nM
IC50 [27]: 1300 nM
GI50 [28]: < 10 nM
GI50 [29]: < 10 nM
GI50 [30]: < 10 nM
GI50 [31]: < 10 nM

COc1cc(C(=O)c2ccc3c(n2)C(=O)C(N2CCCC2)=CC3=O)cc(OC)c1OC
IC50 [32]: 5900 nM
IC50 [4]: 70 nM
IC50 [33]: 70 nM
IC50 [34]: 70 nM

COc1ccc(-c2ocnc2-c2cc(Br)c(OC)c(OC)c2)cc1OCCCC(=O)NO
IC50 [35]: 18 nM

COC(=O)NCCc1c(C(=O)c2cc(C(F)(F)F)cc(C(F)(F)F)c2)[nH]c2ccccc12
IC50 [1]: 2010 nM
IC50 [2]: 1300 nM

COc1ccc(-c2cc(=O)oc3c(O)c(O)ccc23)cc1O
IC50 [36]: 4900 nM
IC50 [37]: 5500 nM

CC(=O)O[C@H]1C(=O)[C@@]2(C)[C@H]([C@H](OC(=O)c3ccccc3)[C@]3(O)C[C@H](OC(=O)[C@H](O)[C@@H](NC(=O)c4ccccc4)c4ccccc4)C(C)=C1C3(C)C)[C@]1(OC(C)=O)CO[C@@H]1C[C@@H]2O [PACLITAXEL]
inhibition in vivo at 30 mg/kg [38]: 40%

COc1ccc(/C=C\c2cc(OC)c(OC)c(OC)c2)cc1O [COMBRETASTATIN A4]
IC50 [35]: 11 nM

COc1ccc(N(C)c2nc(C)nc3ccccc23)cc1OCCCC(=O)NO
IC50 [39]: 31 nM
IC50 [40]: 31 nM
IC50 [41]: 31 nM
IC50 [42]: 31 nM
IC50 [43]: 31 nM
IC50 [44]: 31 nM
IC50 [45]: 31 nM
IC50 [46]: 31 nM
IC50 [47]: 31 nM
IC50 [48]: 31 nM
IC50 [49]: 31 nM
IC50 [50]: 31 nM
IC50 [51]: 31 nM
IC50 [52]: 31 nM
IC50 [53]: 31 nM
IC50 [54]: 31 nM
IC50 [55]: 31 nM
IC50 [56]: 31 nM
IC50 [57]: 31 nM
IC50 [58]: 31 nM

COc1ccc(O)c(C(=O)c2cnc3[nH]c4ccccc4c3c2)c1
IC50 [59]: 160 nM
IC50 [60]: 400 nM
IC50 [61]: 320 nM

O=C(CCCc1ccc(-c2ccccc2F)cc1)Nc1ccc(O)cc1
EC50 [62]: 600 nM
EC50 [63]: 600 nM
EC50 [64]: 600 nM
EC50 [65]: 600 nM

CN(C)c1ccc(/C=C2/SC(=Nc3ccccc3Cl)NC2=O)cc1
inhibition in vivo at 30 mg/kg [38]: 60.4%
IC50 [66]: 700 nM
inhibition in vivo at 30 mg/kg [67]: 62.4%
IC50 [68]: 800 nM
